Laboratory results from patent US10947252B2, “Inhibitors of KEAP1-Nrf2 protein-protein interaction” (Janssen Pharmaceutica NV, priority 2018, dated 2021).
Counter-ions that a name gives are not always drawn.

Legend:
[1] = tested on: Glo-Response ARE-luc2P HEK293 cell line; experiment: ARE luciferase reporter cell-based assay; conditions: average of results obtained;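 note: luciferase signal tracks Nrf2 activation of the ARE once compounds disrupt KEAP1-Nrf2 binding, read with One-Glo reagent, DMSO serving as low control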
[2] = biological target: Kelch domain of human KEAP1 (321-624 aa) (Homo sapiens (Human), UniProt Q14145); experiment: KEAP1 KELCH ThermoFluor binding assay; conditions: KEAP Kelch […], 1,8-ANS, pH 7.0, average of results obtained, read-out: Tf Kd;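 note: Ligand-induced melting temperature shift of E. coli-expressed KEAP1 Kelch protein, Kd estimated from concentration-response curves of ΔTm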
Kelch domain of human KEAP1 (321-624 aa), sequence (Q14145 321-624): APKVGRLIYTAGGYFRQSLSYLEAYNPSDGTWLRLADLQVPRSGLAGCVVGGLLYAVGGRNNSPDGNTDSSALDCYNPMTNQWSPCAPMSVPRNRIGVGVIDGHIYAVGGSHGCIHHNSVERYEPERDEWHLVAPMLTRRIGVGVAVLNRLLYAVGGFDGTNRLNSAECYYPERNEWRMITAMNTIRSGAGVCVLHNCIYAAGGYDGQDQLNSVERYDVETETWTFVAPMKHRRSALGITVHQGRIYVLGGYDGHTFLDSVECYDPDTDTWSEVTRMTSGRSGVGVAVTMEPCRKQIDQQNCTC

Kd [2] [nM]	Structure (SMILES)	EC50 ([1]; Homo sapiens, HEK293, 24 h) [nM]	EC50 ([1]; 24 hours) [nM]
< 1	CCn1nnc2c(C)c(C(CC(=O)O)c3ccc(C)c(CN4C[C@@H]5CCCN5c5ncccc5S4(=O)=O)c3)ccc21 (mixture of isomers) [Example 155, (R/S)-3-(3-(((S)-5,5-Dioxido-7a,8,9,10-tetrahydropyrido[2,3-f]pyrrolo[2,1-d][1,2,5]thiadiazepin-6(7H)-yl)methyl)-4-methylphenyl)-3-(1-ethyl-4-methyl-1H-benzo[d][1,2,3]triazol-5-yl)propanoic Acid]	6.1	–
< 1	CC[C@@H]1CN(Cc2cc(C(CC(=O)O)c3ccn4c(C)nnc4c3)ccc2C)S(=O)(=O)c2cccnc2O1 (mixture of isomers) [Example 162, (R/S)-3-(3-(((R)-4-Ethyl-1,1-dioxido-3,4-dihydro-2H-pyrido[2,3-b][1,4,5]oxathiazepin-2-yl)methyl)-4-methylphenyl)-3-(3-methyl-[1,2,4]triazolo[4,3-a]pyridin-7-yl)propanoic Acid]	2440	–
< 1	Cc1ccc(C(CC(=O)O)c2ccn3c(C4CC4)nnc3c2C)cc1CN1C[C@H]2CCCN2c2ncccc2S1(=O)=O (mixture of isomers) [Example 167, (R/S)-3-(3-Cyclopropyl-8-methyl-[1,2,4]triazolo[4,3-a]pyridin-7-yl)-3-(3-(((R)-5,5-dioxido-7a,8,9,10-tetrahydropyrido[2,3-f]pyrrolo[2,1-d][1,2,5]thiadiazepin-6(7H)-yl)methyl)-4-methylphenyl)propanoic Acid]	1140	–
< 1	CC[C@@H]1CN(Cc2nc(C(CC(=O)O)c3ccc4c(nnn4C4CC4)c3C)ccc2C)S(=O)(=O)c2cccnc2O1 (mixture of isomers) [Example 174, (R/S)-3-(1-Cyclopropyl-4-methyl-1H-benzo[d][1,2,3]triazol-5-yl)-3-(6-(((R)-4-ethyl-1,1-dioxido-3,4-dihydro-2H-pyrido[2,3-b][1,4,5]oxathiazepin-2-yl)methyl)-5-methylpyridin-2-yl)propanoic Acid]	15	–
< 1	CC[C@@H]1CN(Cc2cc(C(CC(=O)O)c3ccn4c(C(F)(F)F)nnc4c3C)ccc2C)S(=O)(=O)c2cccnc2O1 (mixture of isomers) [Example 188, (R/S)-3-(3-(((R)-4-ethyl-1,1-dioxido-3,4-dihydro-2H-pyrido[2,3-b][1,4,5]oxathiazepin-2-yl)methyl)-4-methylphenyl)-3-(8-methyl-3-(trifluoromethyl)-[1,2,4]triazolo[4,3-a]pyridin-7-yl)propanoic acid]	17	–
< 1	Cc1ccc(C(CC(=O)O)c2ccc3c(nnn3C3CC3)c2C)cc1CN1C[C@H]2CCCN2c2ncccc2S1(=O)=O (mixture of isomers) [Example 209, (R/S)-3-(1-Cyclopropyl-4-methyl-1H-benzo[d][1,2,3]triazol-5-yl)-3-(3-(((R)-5,5-dioxido-7a,8,9,10-tetrahydropyrido[2,3-f]pyrrolo[2,1-d][1,2,5]thiadiazepin-6(7H)-yl)methyl)-4-methylphenyl)propanoic Acid]	8.8	–
< 1	CC[C@@H]1CN(Cc2cc(C(CC(=O)O)c3cc(OC(F)F)c4c(c3)nnn4C)ccc2C)S(=O)(=O)c2cccnc2O1 (mixture of isomers) [Example 249, 3-(7-(Difluoromethoxy)-1-methyl-1H-benzo[d][1,2,3]triazol-5-yl)-3-(3-(((R)-4-ethyl-1,1-dioxido-3,4-dihydro-2H-pyrido[2,3-b][1,4,5]oxathiazepin-2-yl)methyl)-4-methylphenyl)propanoic Acid and its Trifluoroacetic Acid Salt]	28.6	–
1.51	Cc1cc2cc(C(CC(=O)O)c3ccc(C)c(CN4C[C@H]5CCCN5c5ncccc5S4(=O)=O)c3)n(C)c2nn1 (mixture of isomers) [Example 434, 3-(3,7-Dimethyl-7H-pyrrolo[2,3-c]pyridazin-6-yl)-3-(3-(((R)-5,5-dioxido-7a,8,9,10-tetrahydropyrido[2,3-f]pyrrolo[2,1-d][1,2,5]thiadiazepin-6(7H)-yl)methyl)-4-methylphenyl)propanoic Acid]	3870	–
1.84	Cc1cc2cc(C(CC(=O)O)c3ccc(C)c(CN4C[C@@H]5CCCN5c5ncccc5S4(=O)=O)c3)n(C)c2nn1 (mixture of isomers) [Example 437, 3-(3,7-Dimethyl-7H-pyrrolo[2,3-c]pyridazin-6-yl)-3-(3-(((S)-5,5-dioxido-7a, 8,9,10-tetrahydropyrido[2,3-f]pyrrolo[2,1-d][1,2,5]thiadiazepin-6(7H)-yl)methyl)-4-methylphenyl)propanoic Acid]	4380	–
< 1	Cc1cc2cc(C(CC(=O)O)c3ccc(C)c(CN4C[C@@H]5CCCCN5c5ncccc5S4(=O)=O)c3)n(C)c2nn1 (mixture of isomers) [Example 440, 3-(3,7-Dimethyl-7H-pyrrolo[2,3-c]pyridazin-6-yl)-3-(3-(((S)-5,5-dioxido-7,7a,8,9,10,11-hexahydro-6H-dipyrido[2,1-d:2′,3′-f][1,2,5]thiadiazepin-6-yl)methyl)-4-methylphenyl)propanoic Acid]	714	–
< 1	Cc1ccc(C(CC(=O)O)c2ccn3c(C(F)F)nnc3c2C)cc1CN1C[C@H]2CCCN2c2ncccc2S1(=O)=O (mixture of isomers) [Example 449, 3-(3-(Difluoromethyl)-8-methyl-[1,2,4]triazolo[4,3-a]pyridin-7-yl)-3-(3-(((R)-5,5-dioxido-7a,8,9,10-tetrahydropyrido[2,3-f]pyrrolo[2,1-d][1,2,5]thiadiazepin-6(7H)-yl)methyl)-4-methylphenyl)propanoic Acid]	47.6	–
< 1	Cc1cnc2c(c1)S(=O)(=O)N(Cc1cc([C@H](c3ccn4c(C(F)(F)F)nnc4c3C)C(C)(C)C(=O)O)cnc1C)CC1(CC1)O2 (single isomer, unassigned) [Example 573, (*S)-2,2-Dimethyl-3-(8-methyl-3-(trifluoromethyl)-[1,2,4]triazolo[4,3-a]pyridin-7-yl)-3-(6-methyl-5-((8′-methyl-1′,1′-dioxidospiro[cyclopropane-1,4′-pyrido[2,3-b][1,4,5]oxathiazepin]-2′(3′H)-yl)methyl)pyridin-3-yl)propanoic Acid]	–	–
6750	Cc1cnc2c(c1)S(=O)(=O)N(Cc1cc(C(c3ccn4c(C(F)(F)F)nnc4c3C)C(C)(C)C(=O)O)cnc1C)CC1(CC1)O2 (single isomer, unassigned) [Example 574, (*R)-2,2-Dimethyl-3-(8-methyl-3-(trifluoromethyl)-[1,2,4]triazolo[4,3-a]pyridin-7-yl)-3-(6-methyl-5-((8′-methyl-1′,1′-dioxidospiro[cyclopropane-1,4′-pyrido[2,3-b][1,4,5]oxathiazepin]-2′(3′H)-yl)methyl)pyridin-3-yl)propanoic Acid]	–	–
< 1	Cc1ccc([C@@H](c2ccc3c(nnn3C3CC3)c2C)C(C)(C)C(=O)O)cc1CN1CC2(CC2)Oc2nc(N[C@@H](C)CN3CCCCC3)c(C)cc2S1(=O)=O (single isomer, unassigned) [Example 659, (*S)-3-(1-Cyclopropyl-4-methyl-1H-benzo[d][1,2,3]triazol-5-yl)-2,2-dimethyl-3-(4-methyl-3-((8′-methyl-1′,1′-dioxido-7′-(((S)-1-(piperidin-1-yl)propan-2-yl)amino)spiro[cyclopropane-1,4′-pyrido[2,3-b][1,4,5]oxathiazepin]-2′(3′H)-yl)methyl)phenyl)propanoic Acid]	–	–
< 1	Cc1ccc([C@@H](c2ccn3c(C(F)(F)F)nnc3c2C)C(C)(C)C(=O)O)cc1CN1CC2(CC2)Oc2nc(OCCN3CCC(F)CC3)c(C)cc2S1(=O)=O (single isomer, unassigned) [Example 661, (*S)-3-(3-((7′-(2-(4-fluoropiperidin-1-yl)ethoxy)-8′-methyl-1′,1′-dioxidospiro[cyclopropane-1,4′-pyrido[2,3-b][1,4,5]oxathiazepin]-2′(3′H)-yl)methyl)-4-methylphenyl)-2,2-dimethyl-3-(8-methyl-3-(trifluoromethyl)-[1,2,4]triazolo[4,3-a]pyridine-7-yl)propanoic Acid]	–	–
–	Cc1cnc2c(c1)S(=O)(=O)N(Cc1cc(C(c3ccn4c(C(F)(F)F)nnc4c3)C(C)(C)C(=O)O)ccc1C)CC1(CC1)O2 (stereo not drawn) [Example 322, 2,2-Dimethyl-3-(4-methyl-3-((8′-methyl-1′,1′-dioxidospiro[cyclopropane-1,4′-pyrido[2,3-b][1,4,5]oxathiazepin]-2′(3′H)-yl)methyl)phenyl)-3-(3-(trifluoromethyl)-[1,2,4]triazolo[4,3-a]pyridin-7-yl)propanoic Acid]	22.4	–
–	Cc1cnc2c(c1)S(=O)(=O)N(Cc1cc(C(c3ccn4c(C(F)(F)F)nnc4c3C)C(C)(C)C(=O)O)ccc1C)CC1(CCOCC1)O2 (stereo not drawn) [Example 406, 2,2-Dimethyl-3-(4-methyl-3-((8′-methyl-1′,1′-dioxido-2,3,5,6-tetrahydrospiro[pyran-4,4′-pyrido[2,3-b][1,4,5]oxathiazepin]-2′(3′H)-yl)methyl)phenyl)-3-(8-methyl-3-(trifluoromethyl)-[1,2,4]triazolo[4,3-a]pyridin-7-yl)propanoic Acid]	–	3.6

Structure (SMILES)	Kd [2] [nM]	EC50 ([1]; Homo sapiens, HEK293, 24 h) [nM]	EC50 ([1]; 24 hours) [nM]
Cc1ccc(C(CC(=O)O)c2cc(OC(F)F)c3c(c2)nnn3C)cc1CN1C[C@H]2CCCN2c2ncccc2S1(=O)=O (mixture of isomers) [Example 246, 3-(7-(Difluoromethoxy)-1-methyl-1H-benzo[d][1,2,3]triazol-5-yl)-3-(3-(((R)-5,5-dioxido-7a,8,9,10-tetrahydropyrido[2,3-f]pyrrolo[2,1-d][1,2,5]thiadiazepin-6(7H)-yl)methyl)-4-methylphenyl)propanoic Acid and its Trifluoroacetic Acid Salt]	< 1	87.3	–
